Calls of active or inactive are those of the source.
Assays:
[1] = microbe, parasite or virus in culture; type: functional; conditions: Mycobacterium tuberculosis
[2] = Luminescence Cell-Based Dose Retest to Confirm Inhibitors of Cancer Stem Cells. [Related pubchem assays (depositor defined):AID2717, AID2721]; type: functional; conditions: Homo sapiens
[3] = molecular target: T1, DNA repair protein RAD52 homolog (Homo sapiens, UniProt P43351); type: functional, biochemical
T1 sequence (P43351 whole entry): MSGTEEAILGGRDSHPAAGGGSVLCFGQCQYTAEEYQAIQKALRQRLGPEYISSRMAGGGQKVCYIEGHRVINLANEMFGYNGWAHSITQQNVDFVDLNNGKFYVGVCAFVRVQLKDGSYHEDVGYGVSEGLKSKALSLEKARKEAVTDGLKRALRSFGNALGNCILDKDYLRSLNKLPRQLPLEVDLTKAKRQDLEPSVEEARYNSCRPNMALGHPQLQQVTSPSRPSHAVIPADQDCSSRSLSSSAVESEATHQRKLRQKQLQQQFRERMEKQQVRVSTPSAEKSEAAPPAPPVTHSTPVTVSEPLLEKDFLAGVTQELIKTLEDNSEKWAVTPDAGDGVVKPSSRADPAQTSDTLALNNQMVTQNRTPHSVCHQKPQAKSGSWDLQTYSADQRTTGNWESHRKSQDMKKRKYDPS

[4] = A cytotoxicity screen of small molecule inhibitors of the PhoP region in Salmonella typhi identified in the primary screen. [Related pubchem assays: 1850, 1864, 1985 ]; type: functional
Fatty acid synthase [5] = molecular target: T2, Fatty acid synthase (Homo sapiens, UniProt P49327); experiment: inhibition of human FAS-TE enzyme activity – biochemical, endpoint fluorescence intensity, uHTS hits, dose response (AID 624327); type: functional;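 note: fluorescence from hydrolysis of an O-methyl fluorescein acyl ester substrate by the enzyme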
T2 sequence (P49327 whole entry): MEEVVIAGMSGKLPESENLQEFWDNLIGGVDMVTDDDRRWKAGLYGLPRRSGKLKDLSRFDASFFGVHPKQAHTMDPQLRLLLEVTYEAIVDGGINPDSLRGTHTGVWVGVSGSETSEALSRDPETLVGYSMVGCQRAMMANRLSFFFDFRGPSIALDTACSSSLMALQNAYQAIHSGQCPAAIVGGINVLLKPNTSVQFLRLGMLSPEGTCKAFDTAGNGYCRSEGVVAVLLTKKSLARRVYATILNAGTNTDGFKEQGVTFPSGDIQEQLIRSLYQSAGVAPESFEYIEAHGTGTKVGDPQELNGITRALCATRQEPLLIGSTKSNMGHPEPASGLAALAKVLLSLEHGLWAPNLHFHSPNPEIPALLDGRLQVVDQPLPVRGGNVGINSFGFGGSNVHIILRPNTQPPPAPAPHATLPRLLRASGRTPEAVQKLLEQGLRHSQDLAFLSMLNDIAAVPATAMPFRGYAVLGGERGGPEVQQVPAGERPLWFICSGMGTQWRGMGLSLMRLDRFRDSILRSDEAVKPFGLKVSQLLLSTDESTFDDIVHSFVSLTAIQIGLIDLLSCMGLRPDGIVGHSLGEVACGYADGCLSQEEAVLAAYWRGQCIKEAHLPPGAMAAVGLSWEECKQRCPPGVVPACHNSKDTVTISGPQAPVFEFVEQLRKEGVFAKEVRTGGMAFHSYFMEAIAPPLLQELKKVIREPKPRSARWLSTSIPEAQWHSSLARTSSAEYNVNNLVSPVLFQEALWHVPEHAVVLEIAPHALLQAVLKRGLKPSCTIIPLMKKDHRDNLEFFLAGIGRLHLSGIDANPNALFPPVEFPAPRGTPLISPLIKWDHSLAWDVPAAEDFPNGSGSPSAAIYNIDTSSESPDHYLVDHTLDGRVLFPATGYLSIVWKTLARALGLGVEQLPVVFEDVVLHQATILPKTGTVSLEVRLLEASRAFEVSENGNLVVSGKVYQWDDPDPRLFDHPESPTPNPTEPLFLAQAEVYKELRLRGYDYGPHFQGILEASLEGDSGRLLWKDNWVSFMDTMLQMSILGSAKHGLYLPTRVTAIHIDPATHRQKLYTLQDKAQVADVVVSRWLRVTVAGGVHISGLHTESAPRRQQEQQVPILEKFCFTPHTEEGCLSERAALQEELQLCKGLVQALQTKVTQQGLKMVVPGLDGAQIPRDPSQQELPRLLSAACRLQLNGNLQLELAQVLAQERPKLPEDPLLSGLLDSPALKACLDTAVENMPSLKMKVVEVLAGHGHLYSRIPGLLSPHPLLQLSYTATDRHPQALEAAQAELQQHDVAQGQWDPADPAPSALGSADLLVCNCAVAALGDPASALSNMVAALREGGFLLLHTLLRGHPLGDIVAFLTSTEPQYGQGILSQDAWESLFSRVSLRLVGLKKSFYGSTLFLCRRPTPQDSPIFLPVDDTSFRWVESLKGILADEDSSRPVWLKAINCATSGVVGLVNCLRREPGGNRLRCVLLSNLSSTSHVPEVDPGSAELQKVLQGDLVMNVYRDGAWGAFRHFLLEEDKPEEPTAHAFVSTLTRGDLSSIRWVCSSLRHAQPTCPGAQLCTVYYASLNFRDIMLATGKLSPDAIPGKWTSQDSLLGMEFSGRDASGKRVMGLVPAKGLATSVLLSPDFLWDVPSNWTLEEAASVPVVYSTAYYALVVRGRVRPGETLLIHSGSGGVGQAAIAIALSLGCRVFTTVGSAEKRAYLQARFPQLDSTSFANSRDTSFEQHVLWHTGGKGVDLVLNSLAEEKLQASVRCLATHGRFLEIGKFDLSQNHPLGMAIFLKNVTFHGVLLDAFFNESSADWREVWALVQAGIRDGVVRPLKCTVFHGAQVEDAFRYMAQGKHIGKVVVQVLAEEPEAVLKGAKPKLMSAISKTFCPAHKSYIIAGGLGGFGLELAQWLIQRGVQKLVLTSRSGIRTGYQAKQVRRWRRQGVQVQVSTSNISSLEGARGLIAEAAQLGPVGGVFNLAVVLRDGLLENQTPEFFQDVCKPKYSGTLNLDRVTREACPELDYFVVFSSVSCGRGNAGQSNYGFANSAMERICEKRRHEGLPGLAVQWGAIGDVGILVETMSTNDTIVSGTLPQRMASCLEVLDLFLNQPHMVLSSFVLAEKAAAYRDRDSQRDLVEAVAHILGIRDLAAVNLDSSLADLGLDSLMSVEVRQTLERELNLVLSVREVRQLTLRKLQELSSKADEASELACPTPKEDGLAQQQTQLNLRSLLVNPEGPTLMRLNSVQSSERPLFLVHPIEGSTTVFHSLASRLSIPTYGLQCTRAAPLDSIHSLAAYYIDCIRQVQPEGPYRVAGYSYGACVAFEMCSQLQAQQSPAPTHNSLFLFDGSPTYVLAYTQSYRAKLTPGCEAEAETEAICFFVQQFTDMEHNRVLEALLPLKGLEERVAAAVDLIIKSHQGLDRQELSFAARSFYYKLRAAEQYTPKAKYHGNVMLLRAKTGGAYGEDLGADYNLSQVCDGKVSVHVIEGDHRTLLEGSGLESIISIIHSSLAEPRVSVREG

Fatty acid synthase [6] = molecular target: T2, Fatty acid synthase; experiment: inhibition of human FAS-TE enzyme activity – biochemical, kinetic fluorescence intensity, dose response (AID 624326); type: functional;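 note: rate of fluorescence rise from hydrolysis of a fluorogenic O-methyl fluorescein ester substrate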
[7] = viability of PTEN-deleted HCT116 cells – cell-based, HCT116 PTEN knockout, dose response (AID 1047); type: functional;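 note: HCT116 colon tumor cells with PTEN knocked out; cells exposed to compound for 60 hours before readout; potency for loss of cell viability measured by luminescence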
[8] = viability of HCT116 lacking mutant beta-catenin – cell-based, human colon tumor, dose response (AID 1045); type: functional;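 note: HCT116 colon tumor cells with beta catenin knocked out; cells exposed to compound for 60 hours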
INS1 = experiment: INS-1E survival protection against cytokine death – cell-based, luminescence, retest, dose response (AID 449756); type: functional; conditions: Rattus norvegicus;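 note: cell death triggered by IL-1 beta plus TNF-alpha plus IFN-gamma mixture; protective hits raise ATP signal compared with cytokine alone wells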
[9] = luciferase reporter signal suppression in cells – H4 neuroglioma cells, luminescence, dose response (AID 1990); type: functional, cell-based
BJ [10] = experiment: BJ-TERT fibroblast viability loss – cell-based, RAS-independent, luminescence, dose response (AID 1933); type: functional; conditions: Homo sapiens
[11] = Luminescence Cell-Based Dose Response HTS to Identify Inhibitors of 5'UTR Stem-Loop Driven Prion Protein mRNA Translation in H4 Neuroglioblastoma Cells. [Related pubchem assays: 1827 (Project Summary), 1813 (Primary HTS)]; type: functional
[12] = alpha-synuclein stem-loop luciferase translation blockers – H4 neuroglioma cells, luminescence, confirmation (AID 1988); type: functional, cell-based
BJ [13] = experiment: cells; type: functional, cell-based; conditions: Homo sapiens
BJ [14] = experiment: BJ-TERT-LT-ST fibroblast viability loss – cell-based, RAS-independent, luminescence, dose response (AID 1935); type: functional; conditions: Homo sapiens;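 note: BJ fibroblasts immortalized with TERT plus LT and ST oncogenes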
[15] = DRD fibroblast viability loss – cell-based, non-viral oncogenic, luminescence, dose response (AID 1934); type: functional; conditions: Homo sapiens
Leucine aminopeptidase = molecular target: T3, Leucine aminopeptidase (Plasmodium falciparum 3D7, UniProt Q8IL11); experiment: P. falciparum M17LAP inhibitors, primary screen, biochemical, fluorogenic H-Leu-NHMec substrate, 1536-well (AID 1619); type: functional
T3 sequence (Q8IL11 whole entry): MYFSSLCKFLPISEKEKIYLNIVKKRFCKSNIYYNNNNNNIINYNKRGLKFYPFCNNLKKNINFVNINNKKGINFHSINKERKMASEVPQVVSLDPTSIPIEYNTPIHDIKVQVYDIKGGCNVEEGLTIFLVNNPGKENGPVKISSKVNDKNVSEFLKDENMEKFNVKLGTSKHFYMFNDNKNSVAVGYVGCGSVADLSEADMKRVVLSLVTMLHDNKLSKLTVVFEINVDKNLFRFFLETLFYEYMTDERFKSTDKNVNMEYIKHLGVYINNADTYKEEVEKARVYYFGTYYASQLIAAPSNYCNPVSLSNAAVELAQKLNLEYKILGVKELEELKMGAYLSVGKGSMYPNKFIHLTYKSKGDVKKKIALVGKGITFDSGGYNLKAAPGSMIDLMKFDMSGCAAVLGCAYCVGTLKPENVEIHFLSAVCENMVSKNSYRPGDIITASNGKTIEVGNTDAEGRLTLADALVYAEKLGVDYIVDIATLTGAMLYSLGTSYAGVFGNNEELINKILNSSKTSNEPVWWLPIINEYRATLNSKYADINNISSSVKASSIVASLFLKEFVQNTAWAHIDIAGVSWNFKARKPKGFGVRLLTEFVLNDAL

cells [16] = type: functional, cell-based
cells [17] = type: functional, cell-based; remark: listed apart in the source
[18] = Trypanosoma cruzi growth suppression in host cells – NIH3T3 host cells, beta-gal luminescence, confirmation (AID 2044); type: functional, cell-based;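 note: intracellular parasites grown in NIH/3T3 mouse fibroblasts as host cells; luminescent beta-galactosidase reporter signal from transgenic T. cruzi replicating inside host cells; inhibitors lower the luminescence signal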
[19] = NIH3T3 cell viability loss – ATP luminescence, mouse fibroblasts, counter-screen, dose response (AID 2010); type: functional, cell-based;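 note: cells exposed to compound for about 90 hours before reading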
[20] = molecular target: T4, Ubiquitin-conjugating enzyme E2 N (Homo sapiens, UniProt P61088); type: functional;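 note: Dose-response confirmation in a TR-FRET assay detecting UBC13-driven polyubiquitin chain formation, inhibition measured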
T4 sequence (P61088 whole entry): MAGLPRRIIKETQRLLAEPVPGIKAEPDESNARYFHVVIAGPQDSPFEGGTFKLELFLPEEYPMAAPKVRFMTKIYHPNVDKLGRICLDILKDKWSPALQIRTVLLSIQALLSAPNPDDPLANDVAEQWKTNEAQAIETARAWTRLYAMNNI

[21] = molecular target: T5, Heat shock factor protein 1 (Mus musculus, UniProt P38532); experiment: enhancement of HSF1-driven luciferase signal – cell-based, NIH3T3, luminescence, dose retest, confirmation (AID 435004); type: functional;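 note: stress induced by proteasome inhibitor MG132 added 30 min after compound; luciferase reporter driven by HSF1 response element in NIH3T3 cells; actives raise luminescence as potentiators of the MG132 stress response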
T5 sequence (P38532 whole entry): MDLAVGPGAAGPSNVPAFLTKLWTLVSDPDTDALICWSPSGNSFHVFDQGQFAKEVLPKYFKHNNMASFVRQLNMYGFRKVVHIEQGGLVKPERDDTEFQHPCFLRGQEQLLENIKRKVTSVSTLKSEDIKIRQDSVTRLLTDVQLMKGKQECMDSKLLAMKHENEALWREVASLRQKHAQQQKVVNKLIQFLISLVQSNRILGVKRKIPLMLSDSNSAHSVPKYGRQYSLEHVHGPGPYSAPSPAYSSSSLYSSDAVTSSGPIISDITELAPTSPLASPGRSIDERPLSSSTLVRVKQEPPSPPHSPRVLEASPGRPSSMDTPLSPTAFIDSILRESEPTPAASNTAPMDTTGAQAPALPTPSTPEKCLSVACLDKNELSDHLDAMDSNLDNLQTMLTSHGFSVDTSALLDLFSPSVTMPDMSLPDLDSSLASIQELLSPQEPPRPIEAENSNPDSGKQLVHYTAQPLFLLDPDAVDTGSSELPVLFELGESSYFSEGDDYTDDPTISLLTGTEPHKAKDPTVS

[22] = test system: Streptococcus sp. 'group A'; experiment: Streptococcus pyogenes SK(-)GAS viability under kanamycin – luminescence, BacTiterGlo, confirmation, counter-screen for streptokinase expression inhibitor project, dose response (AID 1900); type: functional, organism-based
[23] = molecular target: Induced myeloid leukemia cell differentiation protein Mcl-1 (Homo sapiens, UniProt Q07820); type: functional
Chain of Induced myeloid leukemia cell differentiation protein Mcl-1 (Q07820 whole entry): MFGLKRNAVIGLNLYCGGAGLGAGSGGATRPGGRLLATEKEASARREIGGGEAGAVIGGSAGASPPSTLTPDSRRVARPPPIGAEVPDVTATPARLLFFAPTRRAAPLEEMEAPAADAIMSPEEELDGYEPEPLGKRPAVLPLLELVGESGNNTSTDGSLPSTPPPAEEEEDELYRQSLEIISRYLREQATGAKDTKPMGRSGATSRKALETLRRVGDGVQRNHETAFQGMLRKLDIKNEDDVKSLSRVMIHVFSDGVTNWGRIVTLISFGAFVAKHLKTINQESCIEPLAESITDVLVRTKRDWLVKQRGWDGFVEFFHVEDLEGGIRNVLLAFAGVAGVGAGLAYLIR

Streptococcus = experiment: GAS UMAA2166 growth inhibition – luminescence, BacTiterGlo, counter-screen for streptokinase expression inhibitor project, dose response (AID 1915); type: functional, organism-based;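 note: potency for reduction of bacterial viability or growth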

## COc1ccccc1C1c2ccc3ccccc3c2Oc2ncn(CCN(C)C)c(=N)c21 (stereo not drawn)
[1]
  CC50: 5.8 µM (active)
[2]
  AC50: 2.72 µM (active)
[3]
  AC50: 20.6 µM (active)

## CCN(CC)CCNc1nc(-c2cccs2)c(CC(=O)O)s1
[3]
  AC50: 14 µM (active)

## S=C(Nc1ccccc1Cl)N(Cc1ccccc1)Cc1ccccn1
[4]
  EC50: > 50 µM (active)

## CC(C(=O)NCCC1=CCCCC1)c1ccc([N+](=O)[O-])cc1 (stereo not drawn)
Fatty acid synthase [5]
  IC50: 5.76 µM (active)
Fatty acid synthase [6]
  IC50: 5.99 µM (active)

## COc1ccc([N+](=O)[O-])cc1NC(=O)C(C)OC(=O)/C=C/c1ccco1 (stereo not drawn)
Fatty acid synthase [5]
  IC50: 3.26 µM (active)
Fatty acid synthase [6]
  IC50: 6.45 µM (active)

## c1ccc(CN2CCC(N3CCN(Cc4ccc5c(c4)OCO5)CC3)CC2)cc1
[4]
  EC50: > 50 µM (active)

## Cc1cccc(NS(=O)(=O)c2ccc3c(c2)OCCO3)c1
[4]
  EC50: > 50 µM (active)

## CCOC(=O)c1c(NC(=O)c2cc(-c3ccc(Cl)s3)nc3ccccc23)sc(C(N)=O)c1C
[7]
  EC50: 5.74 µM (active)
[8]
  EC50: 7.35 µM (active)
INS1
  AC50: 7.98 µM (active)

## CCOc1c(Br)cc(CNc2ccc3c(c2)OCCO3)cc1OC
[9]
  EC50: 4.32 µM (active)
BJ [10]
  EC50: 2.12 µM (active)
[11]
  EC50: 3.63 µM (active)
[12]
  EC50: 0.31 µM (active)
BJ [13]
  EC50: 17.7 µM (active)
BJ [14]
  EC50: 1.41 µM (inconclusive)
[15]
  EC50: 1.29 µM (active)

## CSCCC(NC(=O)c1c(C)oc2c1CCCC2)C(=O)O (stereo not drawn)
Leucine aminopeptidase
  IC50: 35.9 µM (active)

## CCCCCC(=O)NNC(=S)NC(=O)c1cccc([N+](=O)[O-])c1
Leucine aminopeptidase
  IC50: 24.4 µM (active)
Cells [16]
  EC50: > 350 µM (not active)
Cells [17]
  EC50: > 350 µM (not active)

## Cc1c(OCC(=O)NC(Cc2ccc(Cl)cc2)C(=O)O)ccc2c(-c3ccccc3)cc(=O)oc12 (stereo not drawn)
Fatty acid synthase [5]
  IC50: 6.45 µM (active)
Fatty acid synthase [6]
  IC50: 13.3 µM (active)

## Cc1ccc(S(=O)(=O)Cc2ccc(C(=O)N3CCN(c4ccc(F)cc4)CC3)o2)cc1
[7]
  EC50: 9.74 µM (active)
[8]
  EC50: 10.1 µM (active)

## O=C(CN(Cc1ccc(F)cc1)C(=O)CCC(=O)Nc1nccs1)NCC1CCCO1 (stereo not drawn)
Cells [16]
  EC50: > 350 µM (not active)
Cells [17]
  EC50: 35.3 µM (active)

## Cc1ccc2c(c1)c1c3n2CCN(C(=O)CN2CCN(C)CC2)C3CCC1 (stereo not drawn)
[7]
  EC50: 16.1 µM (active)
[8]
  EC50: 16.7 µM (active)

## CCc1ccc(OCC(O)CN2CCC(CN3C(=O)c4cccc5cccc(c45)C3=O)CC2)cc1 (stereo not drawn)
[18]
  EC50: 1.84 µM (active)
[7]
  EC50: 6.53 µM (active)
[19]
  EC50: > 60 µM (not active)
[8]
  EC50: 5.43 µM (active)
[20]
  IC50: > 20 µM (inactive)

## CN(C)c1ccc(CNC(=O)CCS(=O)(=O)c2ccc3c(c2)oc(=O)n3C)cc1
Cells [16]
  EC50: > 350 µM (not active)
Cells [17]
  EC50: > 350 µM (not active)

## O=C(Cn1cc(/C=N/O)c2ccccc21)N1CCOCC1
Leucine aminopeptidase
  IC50: 78.9 µM (active)

## CCCCNC(=O)CCC(=O)Nc1ccc2nc(N3CCC(C)CC3)cc(C)c2c1
[4]
  EC50: > 50 µM (active)

## CCN1CCN(CCCNC(=O)C2CCN(c3nnc(-n4c(C)ccc4C)s3)CC2)CC1
[3]
  AC50: 9.22 µM (active)

## O=C(CN1C(=O)CCSc2ccccc21)Nc1ccc2c(c1)OCCO2
Leucine aminopeptidase
  IC50: 16.1 µM (active)

## Cc1cc(OCC(=O)Nc2ccc3c(c2)OCCO3)cc(C)c1Cl
Cells [16]
  EC50: > 350 µM (not active)
Cells [17]
  EC50: > 350 µM (not active)

## O=C(O)CC12C[C@H]3C[C@@H](C1)CC(n1ncc(N4CCN(c5ccccc5)CC4)c(Cl)c1=O)(C3)C2
Leucine aminopeptidase
  IC50: 152 µM (active)
[21]
  EC50: > 260 µM (inactive)

## O=C(N/N=C/c1ccc(N2CCCC2)c([N+](=O)[O-])c1)c1cccnc1
[4]
  EC50: > 50 µM (active)

## NC1(C(=O)O)CCCc2ccc(N(CCCl)CCCl)cc21 (stereo not drawn)
[3]
  AC50: 16 µM (active)

## O=C(O)c1ccc(N/N=C/c2ccc(-c3ccc(Cl)cc3Cl)o2)cc1
[22]
  EC50: 1.46 µM (active)
[23]
  IC50: 3.56 µM (active)
Streptococcus
  EC50: 2.33 µM (active)
Fatty acid synthase [5]
  IC50: 7.07 µM (active)
Fatty acid synthase [6]
  IC50: 3.65 µM (active)

## CCN(CC(=O)NCc1ccc(F)cc1)C(=O)/C=C/c1ccc(OC)c(S(=O)(=O)NC(C)C)c1
[9]
  EC50: > 120 µM (not active)
BJ [10]
  EC50: 9.24 µM (inconclusive)
[11]
  EC50: > 120 µM (not active)
[12]
  EC50: 9.81 µM (active)
BJ [13]
  EC50: 13.4 µM (active)
BJ [14]
  EC50: 4.34 µM (inconclusive)
[15]
  EC50: 13.7 µM (inconclusive)

## O=C(CN1C(=O)S/C(=C/C=C/c2ccccc2)C1=O)Nc1ccc(C(=O)O)cc1
Leucine aminopeptidase
  IC50: 24.5 µM (active)

— ChEMBL document CHEMBL1201862, “PubChem BioAssay data set” (2004)
